How the values were obtained:
Raptor = Raptor phosphorylation on Ser792 by Western blot in PC-3 and LNCaP cells; assay type: cell-based, human; settings: 25 µM
Protocol: To further confirm the compound 8c-induced activation of AMPK, PC-3 and LNCaP cells were incubated with the compound for 1 h and 24 hours in the presence of the AMPK inhibitor Dorsomorphin. […] Accordingly, ACC phosphorylation was increased at 1 h and 24 h and prevented by Dorsomorphin in both cell lines. AMPK inhibits mTORC1 through phosphorylation of Raptor on two well-conserved serine residues (ser722 and ser792) inducing cell-cycle arrest in response to an energy stress. To further support the 8c-induced AMPK activation, we determined Raptor phosphorylation on Ser792 in prostate cells.
Figure 5 AMPK activation by compound 8c in prostate cancer cells. (A) PC-3 and LNCaP cells were treated with vehicle, 25 µM compound 8c, 25 µM compound 8c + 5 μM Dorsomorphin (8c + D) or 5 μM Dorsomorphin (D), for 1 hour or 24 hours and levels of the phosphorylated AMPK (pAMPK), phosphorylated ACC (pACC), phosphorylated Raptor (pRaptor) forms and HIF1α were determined by Western blot. Upper panel, representative Western blot of three different experiments. β-tubulin (β-Tub) serves as a loading control. […] (B) Cell viability monitored by MTT assay in PC-3 and LNCaP cells treated with vehicle, 25 µM and 50 μM compound 8c alone or in the presence of 5 μM Dorsomorphin or transfected with control siRNA (siC) or α1AMPK-selective siRNA (siAMPK). […]

PNT2 cells = test: Cell viability by MTT assay, PNT2 normal prostate cells; assay type: cell-based, human
Protocol: Figure 3 Comparison of the effect of 2-oxindole fluorinated derivatives on the proliferation of human prostate cancer cells. (A) Normal (PTN2 and RWPE-1) and cancer (PC3,DU145 and LNCaP) prostate cells were treated with different doses of the compounds for 24 hours and cell viability was monitored by MTT assay. […] (C) PC-3, DU145 and LNCaP cells were treated with 25 µM of compound 8c for different times. Values were normalized with the control and represent the mean ± SD of at least three independent experiments. *p < 0.05 and **p < 0.01 compared to control by the Student’s - test.
Human prostate cancer epithelial PC-3, DU145 and LNCaP and human prostate normal RWPE-1 cells were purchased from American Type Culture Collection (ATCC CRL-1435 CRL-1740 and CRL 11609 respectively) (Rockville, MD, USA). The human prostate normal PNT2 cell line was purchased to ECACC (European Collection of Cell cultures, Salisbury, SP4 0JG, UK). Cells were routinely grown in RPMI 1640 medium supplemented with 100 IU/ml penicillin G sodium, 100 µg/ml streptomycin sulfate, 0.25 µg/ml amphotericin B (Invitrogen, Paisley, UK) and 10% fetal calf serum. Cells were used at passages between 10–20. For treatment experiments, cells were plated and grown over night, the medium was then replaced with serum-free RPMI 1640 for 24 hours and then incubated with different doses of the compounds for the indicated times.
Cell viability was determined by 3-(4,5-dimethylthiazol-2-yl)-2,5-diphenyltetrazolium bromide (MTT) (Sigma-Aldrich) method. […] The optical density in each well was evaluated by measurement of absorbance at 490 and 650 nm using a microplate reader (ELX 800 Bio-Tek Intruments, INC). IC50 values were calculated using GraphPad Prism vs 6.0 (GraphPad Software, Inc, La Jolla, CA, USA). Cell viability was also determined by counting viable and dead cells by Trypan blue staining. Trypan blue positive and negative cells were counted using a Countess^TM automated cell counter (Invitrogen, Carlsbad, CA, USA). Results were expressed in relation to total number of cells counted.

O=C1Nc2ccccc2C1(F)Cc1ccc(-c2ccccc2)o1 (stereo not drawn) [Compound 8c, 3-fluoro-3-((5-phenylfuran-2-yl)methyl)indolin-2-one]
Raptor phosphorylation on Ser792 (p-Raptor) (Raptor): increase in p-Raptor
IC50 (PNT2 cells; Homo sapiens, PNT2, MTT, 24 hours): 65 µM
inhibitory efficacy on cells viability at 50 μM (PNT2 cells; PNT2, 50 μM): 56%

Reference: publication PMC5847527, “Identification of a novel 2-oxindole fluorinated derivative as in vivo antitumor agent for prostate cancer acting via AMPK activation” (Scientific Reports, 2018)
